Article PMC10866072, “Design, synthesis, molecular modelling and biological evaluation of novel 6-amino-5-cyano-2-thiopyrimidine derivatives as potent anticancer agents against leukemia and apoptotic inducers” (Journal of Enzyme Inhibition and Medicinal Chemistry, 2024)

Key:
CCRF-CEM = assay type: cell-based; settings: Homo sapiens, one dose 10^-5 M, 48 h
HL-60(TB) = assay type: cell-based; settings: Homo sapiens, one dose 10^-5 M, 48 h
K-562 = assay type: cell-based; settings: Homo sapiens, K562, one dose 10^-5 M, 48 h
MOLT-4 = assay type: cell-based; settings: Homo sapiens, one dose 10^-5 M, 48 h, read-out: % growth
RPMI-8226 = assay type: cell-based; settings: Homo sapiens, one dose 10^-5 M, 48 h
SR = assay type: cell-based; settings: Homo sapiens, one dose 10^-5 M, 48 h
A549/ATCC = assay type: cell-based; settings: Homo sapiens, one dose 10^-5 M, 48 h
EKVX = assay type: cell-based; settings: Homo sapiens, one dose 10^-5 M, 48 h
HOP-62 = assay type: cell-based; settings: Homo sapiens, one dose 10^-5 M, 48 h
HOP-92 = assay type: cell-based; settings: Homo sapiens, one dose 10^-5 M, 48 h
NCI-H226 = assay type: cell-based; settings: Homo sapiens, one dose 10^-5 M, 48 h
NCI-H23 = assay type: cell-based; settings: Homo sapiens, one dose 10^-5 M, 48 h, read-out: % growth
NCI-H460 = assay type: cell-based; settings: Homo sapiens, one dose 10^-5 M, 48 h, read-out: % growth
NCI-H522 = assay type: cell-based; settings: Homo sapiens, one dose 10^-5 M, 48 h
HCC-2998 = assay type: cell-based; settings: Homo sapiens, one dose 10^-5 M, 48 h
HCT-116 = assay type: cell-based; settings: Homo sapiens, one dose 10^-5 M, 48 h, read-out: % growth
HCT-15 = assay type: cell-based; settings: Homo sapiens, one dose 10^-5 M, 48 h, read-out: % growth
HT29 = assay type: cell-based; settings: Homo sapiens, HT-29, one dose 10^-5 M, 48 h
KM12 = assay type: cell-based; settings: Homo sapiens, one dose 10^-5 M, 48 h
SW-620 = assay type: cell-based; settings: Homo sapiens, one dose 10^-5 M, 48 h
SF-268 = assay type: cell-based; settings: Homo sapiens, one dose 10^-5 M, 48 h, read-out: % growth
SF-295 = assay type: cell-based; settings: Homo sapiens, one dose 10^-5 M, 48 h
SF-539 = assay type: cell-based; settings: Homo sapiens, one dose 10^-5 M, 48 h
SNB-19 = assay type: cell-based; settings: Homo sapiens, one dose 10^-5 M, 48 h, read-out: % growth
SNB-75 = assay type: cell-based; settings: Homo sapiens, one dose 10^-5 M, 48 h
U251 = assay type: cell-based; settings: Homo sapiens, U-251, one dose 10^-5 M, 48 h
LOX IMVI = assay type: cell-based; settings: Homo sapiens, one dose 10^-5 M, 48 h, read-out: % growth
MALME-3M = assay type: cell-based; settings: Homo sapiens, one dose 10^-5 M, 48 h
M14 = assay type: cell-based; settings: Homo sapiens, one dose 10^-5 M, 48 h
MDA-MB-435 = assay type: cell-based; settings: Homo sapiens, one dose 10^-5 M, 48 h, read-out: % growth
SK-MEL-2 = assay type: cell-based; settings: Homo sapiens, one dose 10^-5 M, 48 h
SK-MEL-28 = assay type: cell-based; settings: Homo sapiens, one dose 10^-5 M, 48 h
SK-MEL-5 = assay type: cell-based; settings: Homo sapiens, one dose 10^-5 M, 48 h, read-out: % growth
UACC-257 = assay type: cell-based; settings: Homo sapiens, one dose 10^-5 M, 48 h
UACC-62 = assay type: cell-based; settings: Homo sapiens, one dose 10^-5 M, 48 h
IGROV1 = assay type: cell-based; settings: Homo sapiens, IGROV-1, one dose 10^-5 M, 48 h, read-out: % growth
OVCAR-3 = assay type: cell-based; settings: Homo sapiens, one dose 10^-5 M, 48 h
OVCAR-4 = assay type: cell-based; settings: Homo sapiens, one dose 10^-5 M, 48 h
OVCAR-5 = assay type: cell-based; settings: Homo sapiens, one dose 10^-5 M, 48 h
OVCAR-8 = assay type: cell-based; settings: Homo sapiens, one dose 10^-5 M, 48 h
SK-OV-3 = assay type: cell-based; settings: Homo sapiens, one dose 10^-5 M, 48 h
786-0 = assay type: cell-based; settings: Homo sapiens, one dose 10^-5 M, 48 h
A498 = assay type: cell-based; settings: Homo sapiens, one dose 10^-5 M, 48 h
ACHN = assay type: cell-based; settings: Homo sapiens, one dose 10^-5 M, 48 h
CAKI-1 = assay type: cell-based; settings: Homo sapiens, CAKI-1, 48 h, one dose 10^-5 M, 48 h
RXF 393 = assay type: cell-based; settings: Homo sapiens, RXF 393, 48 h, one dose 10^-5 M, 48 h, read-out: % growth
SN12C = assay type: cell-based, human; settings: Homo sapiens, one dose 10^-5 M, 48 h
TK-10 = assay type: cell-based; settings: Homo sapiens, one dose 10^-5 M, 48 h
UO-31 = assay type: cell-based; settings: Homo sapiens, UO-31, 48 h, one dose 10^-5 M, 48 h
PC-3 = assay type: cell-based; settings: Homo sapiens, one dose 10^-5 M, 48 h
DU-145 = assay type: cell-based; settings: Homo sapiens, one dose 10^-5 M, 48 h
MCF7 = assay type: cell-based; settings: Homo sapiens, one dose 10^-5 M, 48 h, read-out: % growth
MDA-MB-231/ATCC = assay type: cell-based; settings: Homo sapiens, one dose 10^-5 M, 48 h
HS 578T = assay type: cell-based; settings: Homo sapiens; one dose 10^-5 M, 48 h; HS 578T; read-out: % growth
T-47D = assay type: cell-based; settings: Homo sapiens, T47D, one dose 10^-5 M, 48 h, read-out: % growth
MDA-MB-468 = assay type: cell-based; settings: Homo sapiens, one dose 10^-5 M, 48 h
[1] = system: full NCI 60 cell lines panel; settings: for activity at 10 µM: Homo sapiens, 60 cell, 48 h, read-out: Mean % growth; for activity on all 60 cancer cell lines tested (in words): one dose
Protocol: 60 different human tumour cell lines-representing leukaemia, melanoma, and malignancies of the lung, colon, brain, ovary, breast, prostate, and kidney are used in the operation of this screen.
Compounds were dissolved in DMSO: glycerol (91) and were kept in a freezer at −70° C. The synthesised compounds were introduced to the culture at a single concentration of 1 0 ^−5 M and left to incubate for 48 h. A protein-binding dye called sulforhodamine B was used to measure end points (SRB).
A mean graph showing the % growth of treated cells is used to represent the one-dose data. The value provided for the One-dose assay represents growth in comparison to the no-drug control and to the number of cells at time zero. This enables the identification of lethality (values between 0 and 100) as well as growth inhibition (values less than 0). A value of 100, for instance, indicates no growth inhibition. A value of 40 would indicate 60% growth inhibition. A value of 0 indicates no net growth over the course of the experiment. A value of −40 would indicate 40% lethality.
Furthermore, the average sensitivity of all cell lines to the compound is termed as the full panel mean graph midpoints (MG-MID). The complete panel mean graph midpoints refers to the average sensitivity of all cell lines to the chemical (MG-MID). A measure of a compound’s selectivity for a given cell line is the ratio created by dividing the full panel mean graph midpoints (MG-MID) concentration by the individual subpanel MG-MID concentrations (obtained as the average sensitivity of all the cell lines in a given subpanel to the test compound).

Compound `N=C(NN=Cc1ccc(Cl)cc1)c1c(N)nc(S)nc1-c1ccc(Cl)cc1` [Compound 4h, 4-amino-6–(4-chlorophenyl)-N'-[(4-chlorophenyl)methylene]-2-mercapto pyrimidine-5-carboximidohydrazide] has a % cell growth at 10 µM (CCRF-CEM) of 75.5%, a % growth at 10 µM (HL-60(TB)) of 101% and a % growth at 10 µM (K-562) of 86%. For the same compound, the activity at 10 µM (MOLT-4) was 85.8%, the % growth at 10 µM (RPMI-8226) was 83.8% and the percent cell growth at 10 µM (SR) was 86.8%. It also gave a % growth at 10 µM (A549/ATCC) of 93.1%, a % cell growth at 10 µM (EKVX) of 75% and a % growth at 10 µM (HOP-62) of 95.6%. The % growth at 10 µM (HOP-92) was 84.2%, the % growth at 10 µM (NCI-H226) was 99% and the activity at 10 µM (NCI-H23) was 93.7%. The activity at 10 µM (NCI-H460) was 93.7%, the % growth at 10 µM (NCI-H522) was 85.4% and the % growth at 10 µM (HCC-2998) was 103%. It also gave an activity at 10 µM (HCT-116) of 86%, an activity at 10 µM (HCT-15) of 90.4% and a % growth at 10 µM (HT29) of 99%. The % growth at 10 µM (KM12) was 91.9%, the % growth at 10 µM (SW-620) was 103% and the activity at 10 µM (SF-268) was 96%. For the same compound, the % cell growth at 10 µM (SF-295) was 90.2%, the % growth at 10 µM (SF-539) was 80.4% and the activity at 10 µM (SNB-19) was 87.5%. For the same compound, the % growth at 10 µM (SNB-75) was 83.5%, the % growth at 10 µM (U251) was 94% and the activity at 10 µM (LOX IMVI) was 94.3%. It also gave a % growth at 10 µM (MALME-3M) of 107%, a % growth at 10 µM (M14) of 104% and an activity at 10 µM (MDA-MB-435) of 98.8%. It also gave a % growth at 10 µM (SK-MEL-2) of 101%, a % cell growth at 10 µM (SK-MEL-28) of 100% and an activity at 10 µM (SK-MEL-5) of 97.3%. It also gave a percent cell growth at 10 µM (UACC-257) of 101%, a % growth at 10 µM (UACC-62) of 81.8% and an activity at 10 µM (IGROV1) of 78.8%. It also gave a % growth at 10 µM (OVCAR-3) of 107%, a % growth at 10 µM (OVCAR-4) of 83.1% and a percent cell growth at 10 µM (OVCAR-5) of 95.4%. The % growth of cells at 10 µM (OVCAR-8) was 94.8%, the % growth at 10 µM (SK-OV-3) was 77.5% and the % growth at 10 µM (786-0) was 98.5%. For the same compound, the % growth at 10 µM (A498) was 102%, the % growth at 10 µM (ACHN) was 77.2% and the % growth at 10 µM (CAKI-1) was 79.4%. The activity at 10 µM (RXF 393) was 103%, the % growth at 10 µM (SN12C) was 91.8% and the % cell growth at 10 µM (TK-10) was 122%. The % cell growth at 10 µM (UO-31) was 66.3%, the percent cell growth at 10 µM (PC-3) was 79.6% and the % growth at 10 µM (DU-145) was 108%. For the same compound, the activity at 10 µM (MCF7) was 76.6%, the % growth at 10 µM (MDA-MB-231/ATCC) was 69.7% and the activity at 10 µM (HS 578T) was 93%. It also gave an activity at 10 µM (T-47D) of 72.1%, a percent cell growth at 10 µM (MDA-MB-468) of 99.3% and an activity at 10 µM [1] of 91%. For the same compound, the “activity on all 60 cancer cell lines tested (in words)” value [1] was “weak activity”.
`N=C(NN=Cc1ccc([N+](=O)[O-])cc1)c1c(N)nc(S)nc1-c1ccc(Cl)cc1` [Compound 4i, 4-amino-6–(4-chlorophenyl)-2-mercapto-N'-[(4-nitrophenyl)methylene] pyrimidine-5-carboximidohydrazide] gave a % cell growth at 10 µM (CCRF-CEM) of 88.6%, a % growth at 10 µM (HL-60(TB)) of 97.3% and a % growth at 10 µM (K-562) of 96.3%. It also gave an activity at 10 µM (MOLT-4) of 105%, a % growth at 10 µM (RPMI-8226) of 89% and a percent cell growth at 10 µM (SR) of 96.5%. The % growth at 10 µM (A549/ATCC) was 103%, the % cell growth at 10 µM (EKVX) was 95.8% and the % growth at 10 µM (HOP-62) was 95%. The % growth at 10 µM (HOP-92) was 97%, the % growth at 10 µM (NCI-H226) was 150% and the activity at 10 µM (NCI-H23) was 106%. The activity at 10 µM (NCI-H460) was 104%, the % growth at 10 µM (NCI-H522) was 92.9% and the % growth at 10 µM (HCC-2998) was 104%. The activity at 10 µM (HCT-116) was 108%, the activity at 10 µM (HCT-15) was 95.2% and the % growth at 10 µM (HT29) was 101%. For the same compound, the % growth at 10 µM (KM12) was 99.2%, the % growth at 10 µM (SW-620) was 102% and the activity at 10 µM (SF-268) was 117%. It also gave a % cell growth at 10 µM (SF-295) of 96.7%, a % growth at 10 µM (SF-539) of 96.7% and an activity at 10 µM (SNB-19) of 94.2%. For the same compound, the % growth at 10 µM (SNB-75) was 115%, the % growth at 10 µM (U251) was 98.8% and the activity at 10 µM (LOX IMVI) was 106%. The % growth at 10 µM (MALME-3M) was 96.9%, the % growth at 10 µM (M14) was 107% and the activity at 10 µM (MDA-MB-435) was 101%. For the same compound, the % growth at 10 µM (SK-MEL-2) was 108%, the % cell growth at 10 µM (SK-MEL-28) was 101% and the activity at 10 µM (SK-MEL-5) was 101%. The percent cell growth at 10 µM (UACC-257) was 96.5%, the % growth at 10 µM (UACC-62) was 94.6% and the activity at 10 µM (IGROV1) was 99.4%. For the same compound, the % growth at 10 µM (OVCAR-3) was 119%, the % growth at 10 µM (OVCAR-4) was 98.6% and the percent cell growth at 10 µM (OVCAR-5) was 101%. The % growth of cells at 10 µM (OVCAR-8) was 105%, the % growth at 10 µM (SK-OV-3) was 103% and the % growth at 10 µM (786-0) was 103%. For the same compound, the % growth at 10 µM (A498) was 114%, the % growth at 10 µM (ACHN) was 92.1% and the % growth at 10 µM (CAKI-1) was 89.6%. It also gave an activity at 10 µM (RXF 393) of 108%, a % growth at 10 µM (SN12C) of 92.6% and a % cell growth at 10 µM (TK-10) of 112%. For the same compound, the % cell growth at 10 µM (UO-31) was 91%, the percent cell growth at 10 µM (PC-3) was 90.1% and the % growth at 10 µM (DU-145) was 108%. The activity at 10 µM (MCF7) was 90.7%, the % growth at 10 µM (MDA-MB-231/ATCC) was 96% and the activity at 10 µM (HS 578T) was 118%. It also gave an activity at 10 µM (T-47D) of 90.5%, a percent cell growth at 10 µM (MDA-MB-468) of 114% and an activity at 10 µM [1] of 101%. For the same compound, the “activity on all 60 cancer cell lines tested (in words)” value [1] was “weak activity”.
